What was measured:
[1] = rat heart rate elevation and anti-goiter assays; cited from earlier work
Hairless (Hr) mRNA = test: Induction of Hairless (Hr) mRNA expression in the brain by qPCR after ip administration; type: in vivo, C57BL/6J mice; conditions: for induction of Hr expression: 9.14 μmol/kg ip; for induction of Hr expression / EC50 of Hr mRNA induction in the brain / Hr induction compared to GC-1: 2 hr; for induction of Hr expression / Hr induction compared to GC-1 / potency greater than GC-1 (Hr induction, single dose): brain; for induction of Hr expression / EC50 of Hr mRNA induction in the brain: normalized to GAPDH mRNA; for EC50 of Hr mRNA induction in the brain: ip, ±SEM; for Hr induction compared to GC-1: analogs at 0.914 μmol/kg ip; for potency greater than GC-1 (Hr induction, single dose): from single dose comparison
Procedure: Euthanasia was performed on three mice per dose at 2 hr and the tissues were harvested. The brain tissues collected for qPCR analysis were processed according to a protocol for RNA extraction using Trizol reagent and the PureLink RNA mini kit, using Qiagen RNase-free DNase kit during the optional DNase treatment step. 1 μg of extracted RNA was used to synthesize cDNA via a reverse transcription (RT) reaction using the Qiagen QuantiTect Reverse Transcription kit. DNA contamination was controlled for by duplicating one sample without the addition of RT enzyme. Expression of the Hairless (Hr) gene was measured by QPCR using the QuantiTect SYBR green PCR kit from Qiagen. The primer sequences for hairless ([…]; Rev: [NT] were previously described by Barca-Mayo19. The template cDNA was diluted 2-fold to minimize the interference of RT reagents in the qPCR reaction. Glyceraldehyde-3-Phosphate Dehydrogenase (GAPDH) was the housekeeping gene used for normalizing between samples. Data analysis for single dose experiment was done using the comparative CT method to look at the relative differences in Hr gene expression.

hTRα1 = hTRα1 (Homo sapiens (Human), UniProt P10827); test: TRE-driven dual luciferase transactivation assay, TRα; type: cell-based; conditions: transiently transfected HEK293 cells; ±SEM
Procedure: The cells were trypsinized with 0.25% trypsin, then diluted to 5×10^5 cells/mL with high glucose DMEM. […] 1.5 μg of TR expression vector (full length TRα-CMV or TRβ-CMV), 1.5 μg of a reporter plasmid containing a DR4 thyroid hormone response element (TRE) direct repeat spaced by four nucleotides (AGGTCAcaggAGGTCA) cloned upstream of a minimal thymidine kinase promoter linked to a firefly luciferase coding sequence, and 0.75 μg of a pRL-SV40 constitutive Renilla luciferase reporter plasmid were diluted into 540 μl of OptiMEM. 27 μL of lipofectamine reagent was diluted into 540 μL of OptiMEM. The plasmid and lipofectamine dilutions were combined then incubated at RT for 10 min. The mixture was then diluted into 4.29 mL of OptiMEM. Plates were washed with 100 μL of phosphate buffered saline (PBS) at pH 7.2 without magnesium or calcium chloride per well. Transfection mixtures were added at 50 μL per well, then incubated at 37° C. for 4 hours. […]
(§1) Cells were assayed for luciferase activity using the Promega DualGlo kit. […] A 50 μl volume of Stop & Glo Reagent was added per well, then the plate was read for Renilla luciferase activity. Data normalized to Renilla internal control were analyzed with GraphPad Prism v.4a using the sigmoid dose response model to generate EC50 values±SEM.

[2] = Distribution study in brain and serum after systemic (ip) administration, LC-MS/MS; type: in vivo, C57BL/6J mice; conditions: 9.14 μmol/kg ip, 1 hr post-injection
Procedure: Euthanasia was performed on three mice per dose at 1 hr and the tissues and blood were harvested. Tissues were immediately frozen and blood was kept on ice for a minimum of 30 minutes and then spun down at 7,500×G for 15 minutes. Serum (100 uL) was collected and was stored with tissues at −80° C. until samples were processed.
The serum samples were warmed to RT and 10 uL of 2.99 μM internal standard (D6-GC-1) was added to them. Acetonitrile (500 uL) was added and the sample was vortexed for 20 seconds. The sample was then centrifuged at 10,000×G for 15 minutes at 4° C. Next, 90% of the upper supernatant was transferred to a glass test tube and concentrated using a speedvac for 1.5 hr at 45° C. The dried sample was then dissolved in 400 μL of 50:50 ACN:H2O and vortexed for 20 seconds. The resulting mixture was transferred to an Eppendorf tube and centrifuged at 10,000×G for 15 minutes. The supernatant was filtered with […] centrifugal filters and submitted for LCMS/MS analysis. […] The processing was performed exactly the same except after filtering the sample was split among 6 vials.
The brain samples were warmed to RT and transferred to a homogenizer tube with 5 GoldSpec ⅛ chrome steel balls (Applied Industrial Technologies). The resulting tube was weighed and then 1 mL of H2O was added, followed by 10 μL of 2.99 μM internal standard (D6-Sobetirome). The tube was homogenized with a Bead Bug for 30 seconds and then transferred to a Falcon® tube containing 3 mL of ACN. A 1 ml volume of ACN was used to wash the homogenizer tube. Then the solution was transferred back to the Falcon® tube. The sample was then processed using the same method for the serum processing described above except the sample was concentrated in a glass tube using a speed vac for 4 hr at 45° C.
A distribution study was carried out in C57BL/6J mice to determine the concentrations in brain and serum after systemic (ip) administration. […] Tissue and blood were collected 1 hr post-injection and the concentration of the drugs was determined by LC-MS/MS analysis (FIG. 2).

hTRβ1 [3] = target: hTRβ1 (Homo sapiens (Human), UniProt P10828); test: TRE-driven dual luciferase transactivation assay, TRβ; type: cell-based; conditions: transiently transfected HEK293 cells; ±SEM
Procedure: (§2) The cells were trypsinized with 0.25% trypsin, then diluted to 5×10^5 cells/mL with high glucose DMEM. […] 1.5 μg of TR expression vector (full length TRα-CMV or TRβ-CMV), 1.5 μg of a reporter plasmid containing a DR4 thyroid hormone response element (TRE) direct repeat spaced by four nucleotides (AGGTCAcaggAGGTCA) cloned upstream of a minimal thymidine kinase promoter linked to a firefly luciferase coding sequence, and 0.75 μg of a pRL-SV40 constitutive Renilla luciferase reporter plasmid were diluted into 540 μl of OptiMEM. 27 μL of lipofectamine reagent was diluted into 540 μL of OptiMEM. The plasmid and lipofectamine dilutions were combined then incubated at RT for 10 min. The mixture was then diluted into 4.29 mL of OptiMEM. Plates were washed with 100 μL of phosphate buffered saline (PBS) at pH 7.2 without magnesium or calcium chloride per well. Transfection mixtures were added at 50 μL per well, then incubated at 37° C. for 4 hours. Modified DME/F-12 Ham's medium without phenol red containing 15 mM HEPES and bicarbonate, 5 mM L-glutamine, charcoal-stripped FBS, 50 units/mL penicillin and 50 μg/mL streptomycin was added at 50 μL per well, then the plates were incubated at 37° C. for 20 hours. Drug stocks were made at 10 mM in DMSO, then serially diluted to 1× concentrations in DME/F-12 Ham's. Plates were washed with 100 μL of PBS (pH 7.2) per well. 100 μL of each drug stock was added to the wells in triplicate, and then the plates were incubated at 37° C. for 24 hours.
as §1

hTRβ1 [4] = test: as above; type: cell-based, human; conditions: transactivation assays in HEK293 cells
Procedure: as §2, §1

[5] = Single time-point drug distribution of parent drugs from amides in brain and serum; type: in vivo, C57Bl/6 mice; conditions: equimolar systemic dose of 3.05 μmol/kg, 1 hour, brain
Procedure: Wild type male C57Bl/6 mice, aged 8-10 weeks, were housed in a climate-controlled room with a 12 hour light-dark cycle with ad libitum access to food and water. To compare the single time-point drug distribution of JD-20 with JD-20 generated from the amide MA-JD20, and JD-21 with JD-21 generated from the amide MA-JD-21, the concentrations of the parent drugs were analyzed in brain and serum of mice by administering a dose of 3.05 μmol/kg (three mice per dose) with JD-20, JD-21, MA-JD20 and MA-JD21 both intraperitoneally and orally. The compounds were dissolved in a mixture of 50:50 DMSO and 0.9% sodium chloride bacteriostatic solution. Oral gavage was performed with the use of plastic feeding tubes (20 ga×38 mm, Instech Laboratories Inc., PA, USA) connected to […] insulin syringes (Covidien LLC MA, USA). In both experiments, the mice were euthanized after 1 hour following drug administration.
The tissues were processed as follows: The brains were collected in previously weighed homogenizer tubes with 3 Gold Spec ⅛ chrome steel balls (Applied Industrial Technologies) and immediately frozen at −80° C. The blood samples were kept on ice for 30 mins and then spun down at 5400×G at 4° C. for 15 min. […]
The serum samples were warmed to room temperature. […] The serum samples thus prepared were submitted for LC-MS/MS analysis to quantify the amount of free JD-20 or JD-21. […]

Human FAAH = Human FAAH (Homo sapiens (Human), UniProt O00519); test: FAAH activity in cell homogenate; type: biochemical
Procedure: COS-7 cells (ATCC CRL-1651) were cultured in Dulbecco's Modified Eagle's Medium supplemented with 10% FBS, penicillin ([…]), and streptomycin ([…]). Cells (800,000/well) were seeded into 6-well plates (Falcon 353046) and left to adhere overnight. Cells were transfected with pcDNA4-FAAH-FLAG with Lipofectamine 2000 (Invitrogen) according to the manufacturer's protocol. Mock transfection controls were done with transfection reagent and no DNA. Cells were washed 4-days post transfection with cold PBS and scraped into TE buffer (125 mM Tris, 1 mM EDTA, pH 9) and sonicated (10 sec, 60 Sonic Dismembrator, Fisher). Cell homogenates were stored at −80° C. and protein concentrations were determined by BCA (Pierce). Cell homogenates were diluted into TE buffer containing 0.1% fatty-acid free BSA (Alfa Aesar). Substrates were added as 50× stocks in DMSO into 50 μL aliquots of homogenate to a final concentration of 100 μM. Reactions were performed with homogenate protein at 31.25 μg/mL for 15 min at 37° C. Reactions were quenched with 100 μL acetonitrile and vortexed for 20 s. Samples were clarified by centrifuge (10,000 rpm, 15 min, 4° C.). The supernatant is diluted 50-fold into 2:1 MeCN:H2O containing 300 nM d11-arachindonic acid and 30 nM d6-sobetirome. Samples were centrifuged again (13,200 rpm, 15 min, 4° C.). Products were quantified by LC/MS-MS with standard curves generated from mock samples. Observed rates are expressed as nmol product per mg protein homogenate per min.
FAAH was overexpressed in COS-7 cells as described above and cell homogenate was used to measure observed rates of substrate cleavage compared with the classic endogenous FAAH substrate anandamide (AEA). Substrate were all tested at 100 μM. Compared to AEA, the thyromimetic amides MA-GC 1 (9-fold), MA-JD20 (31-fold), and MA-JD21 (20-fold) show decreased rates. […] Observed rates are expressed as nmol product per mg homogenate protein per min.

Sequence of hTRα1 (P10827 other isoform, or with tags, fused parts or gaps): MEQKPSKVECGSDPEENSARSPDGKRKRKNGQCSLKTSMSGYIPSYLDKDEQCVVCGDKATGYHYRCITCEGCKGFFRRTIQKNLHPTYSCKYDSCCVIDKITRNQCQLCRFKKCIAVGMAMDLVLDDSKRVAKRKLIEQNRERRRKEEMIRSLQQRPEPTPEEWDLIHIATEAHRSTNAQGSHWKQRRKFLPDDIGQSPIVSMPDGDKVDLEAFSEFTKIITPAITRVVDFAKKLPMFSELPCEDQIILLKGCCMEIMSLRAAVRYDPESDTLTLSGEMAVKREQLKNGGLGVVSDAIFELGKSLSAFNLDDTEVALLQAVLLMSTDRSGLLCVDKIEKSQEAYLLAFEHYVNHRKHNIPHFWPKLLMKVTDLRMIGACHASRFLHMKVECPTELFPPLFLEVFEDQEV
Sequence of Human FAAH (O00519 whole entry): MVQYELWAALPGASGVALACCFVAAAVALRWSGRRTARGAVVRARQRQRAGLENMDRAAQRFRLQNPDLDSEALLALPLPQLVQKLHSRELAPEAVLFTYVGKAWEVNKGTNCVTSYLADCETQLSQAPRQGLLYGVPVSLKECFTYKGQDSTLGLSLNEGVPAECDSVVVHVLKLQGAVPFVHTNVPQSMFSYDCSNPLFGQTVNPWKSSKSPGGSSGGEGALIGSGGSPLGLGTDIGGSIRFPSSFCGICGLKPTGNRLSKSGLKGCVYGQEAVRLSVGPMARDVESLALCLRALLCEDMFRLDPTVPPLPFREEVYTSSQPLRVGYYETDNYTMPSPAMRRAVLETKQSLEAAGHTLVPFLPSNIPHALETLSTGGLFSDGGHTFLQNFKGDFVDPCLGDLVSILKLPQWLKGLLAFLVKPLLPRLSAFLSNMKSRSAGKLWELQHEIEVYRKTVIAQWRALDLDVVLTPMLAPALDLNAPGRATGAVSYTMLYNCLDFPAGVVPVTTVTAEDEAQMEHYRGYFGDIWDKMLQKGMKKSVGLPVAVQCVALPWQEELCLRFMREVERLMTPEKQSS
Sequence of hTRβ1 (Homo sapiens (Human), UniProt P10828) (P10828 whole entry, looked up): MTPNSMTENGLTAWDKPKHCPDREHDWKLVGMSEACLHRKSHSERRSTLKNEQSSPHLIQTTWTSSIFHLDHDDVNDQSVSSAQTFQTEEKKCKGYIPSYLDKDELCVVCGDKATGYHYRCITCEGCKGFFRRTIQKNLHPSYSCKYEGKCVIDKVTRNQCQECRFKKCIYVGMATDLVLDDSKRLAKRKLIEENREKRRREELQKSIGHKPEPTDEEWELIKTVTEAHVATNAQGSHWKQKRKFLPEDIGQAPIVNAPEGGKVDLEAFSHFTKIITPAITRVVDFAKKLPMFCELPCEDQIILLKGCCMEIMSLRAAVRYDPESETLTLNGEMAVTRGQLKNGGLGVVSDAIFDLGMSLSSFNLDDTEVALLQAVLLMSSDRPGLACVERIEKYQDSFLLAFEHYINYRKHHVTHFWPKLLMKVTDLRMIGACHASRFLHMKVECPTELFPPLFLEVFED

SMILES | induction of Hr expression (Hairless (Hr) mRNA) | EC50 of Hr mRNA induction in the brain (Hairless (Hr) mRNA) | EC50 (hTRα1) | Hr induction compared to GC-1 (Hairless (Hr) mRNA) | potency greater than GC-1 (Hr induction, single dose) (Hairless (Hr) mRNA) | brain:serum ratio compared to GC-1 [2] | brain uptake compared to GC-1 [2] | serum levels compared to GC-1 [2] | EC50 (hTRβ1 [3]) | TRβ/TRα subtype selectivity from EC50 values (hTRβ1 [4]) | further results
Cc1cc(CC(N)C(=O)O)cc(C)c1Oc1ccc(O)c(C(C)C)c1 (racemic) [DIMIT, 3′-isopropyl-3,5-dimethyl-DL-thyronine] |  |  |  |  |  |  |  |  |  |  | activity [1]: little measurable activity
CC(C)c1cc(Oc2c(Br)cc(C[C@H](N)C(=O)O)cc2Br)ccc1O [DIBIT, 3′-isopropyl-3,5-dibromo-L-thyronine] |  |  |  |  |  |  |  |  |  |  | potency relative to L-T4 [1]: 2-7 fold
Cc1cc(OCC(=O)O)cc(C)c1Cc1ccc(O)c(C(C)C)c1 [GC-1, sobetirome, reference compound] | 1.6 fold | 8.20 ± 12.65 µmol/kg |  |  |  |  |  |  |  |  | 
CC(C)c1cc(Cc2c(Br)cc(OCC(=O)O)cc2Br)ccc1O [JD-20, 2-(3,5-dibromo-4-((3-isopropyl-4-hydroxyphenyl)methyl)-phenoxy)acetic acid] |  | 1.49 ± 1.08 µmol/kg | 7.96 ± 6.95 nM | comparable Hr induction to GC-1 | roughly 10 fold | comparable to GC-1 | somewhat lower | significantly lower than GC-1 | 0.88 ± 1.12 nM | 9.04 | 
CC(C)c1cc(Cc2c(Cl)cc(OCC(=O)O)cc2Cl)ccc1O [JD-21, 2-(3,5-dichloro-4-((3-isopropyl-4-hydroxyphenyl)methyl)-phenoxy)acetic acid] | 2.4 fold | 1.21 ± 1.75 µmol/kg | 7.82 ± 3.61 nM | comparable Hr induction to GC-1 | roughly 10 fold | higher brain:serum ratio than GC-1 | roughly comparable brain uptake compared to GC-1 | significantly lower than GC-1 | 1.24 ± 1.3 nM | 6.31 | 
CNC(=O)COc1cc(Cl)c(Cc2ccc(O)c(C(C)C)c2)c(Cl)c1 [MA-JD21, 2-(3,5-dichloro-4-(4-hydroxy-3-isopropylbenzl)phenoxy)-N-methylacetamide] |  |  |  |  |  |  |  |  |  |  | parent drug delivered to the CNS compared to unmodified JD-20 or JD-21 [5]: delivers more of the parent drugs to the CNS; FAAH substrate (Human FAAH; 100 μM, COS-7 cell homogenate): substrates for fatty-acid amide hydrolase (FAAH); decreased observed rate of substrate cleavage compared to AEA (Human FAAH; substrate 100 μM, FAAH overexpressed in COS-7 cell homogenate): 20 fold
